The values below come from paper PMC10174618, “Monoterpenoid aryl hydrocarbon receptor allosteric antagonists protect against ultraviolet skin damage in female mice” (Nature Communications, 2023).

What all share (experiment): biochemical
What all share (parameters): KINOMEscan scanMAX active site-directed competition binding assay, percent of control, 468 kinases
Settings in all cases: competition binding, percent of control

The target in assay [1] is T1, ADCK3 (Homo sapiens, UniProt Q8NI60).
T1 construct: gene COQ8A
T1 sequence (Q8NI60 whole entry): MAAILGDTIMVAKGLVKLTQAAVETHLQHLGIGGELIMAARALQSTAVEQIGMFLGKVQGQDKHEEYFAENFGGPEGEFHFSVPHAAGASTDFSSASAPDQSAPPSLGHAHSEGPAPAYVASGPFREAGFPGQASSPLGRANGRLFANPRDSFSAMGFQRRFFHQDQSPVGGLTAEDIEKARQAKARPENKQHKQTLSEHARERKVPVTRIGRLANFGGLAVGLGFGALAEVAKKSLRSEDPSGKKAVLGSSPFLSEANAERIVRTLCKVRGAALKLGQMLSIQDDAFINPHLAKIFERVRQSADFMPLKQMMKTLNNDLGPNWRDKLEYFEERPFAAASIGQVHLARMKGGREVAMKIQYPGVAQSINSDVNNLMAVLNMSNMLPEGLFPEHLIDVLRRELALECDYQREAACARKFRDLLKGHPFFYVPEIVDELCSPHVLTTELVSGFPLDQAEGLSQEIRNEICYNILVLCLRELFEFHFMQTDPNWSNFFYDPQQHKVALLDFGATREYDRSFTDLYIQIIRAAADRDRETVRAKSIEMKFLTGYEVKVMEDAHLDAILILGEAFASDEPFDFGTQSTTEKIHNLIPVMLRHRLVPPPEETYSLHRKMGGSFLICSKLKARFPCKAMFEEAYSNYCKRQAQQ
Summed up: (§1)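 Single-concentration screen (100 μM S-carvone) in a competition binding panel of 468 human kinases (KINOMEscan scanMAX); results given as percent of control, hit cutoff 35%.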

The target in assay [2] is AURKB (Homo sapiens, UniProt Q96GD4). Summed up:
as §1

The target of assay [3] is BLK (Homo sapiens, UniProt P51451). Summed up: as §1
Sequence of BLK (P51451 whole entry): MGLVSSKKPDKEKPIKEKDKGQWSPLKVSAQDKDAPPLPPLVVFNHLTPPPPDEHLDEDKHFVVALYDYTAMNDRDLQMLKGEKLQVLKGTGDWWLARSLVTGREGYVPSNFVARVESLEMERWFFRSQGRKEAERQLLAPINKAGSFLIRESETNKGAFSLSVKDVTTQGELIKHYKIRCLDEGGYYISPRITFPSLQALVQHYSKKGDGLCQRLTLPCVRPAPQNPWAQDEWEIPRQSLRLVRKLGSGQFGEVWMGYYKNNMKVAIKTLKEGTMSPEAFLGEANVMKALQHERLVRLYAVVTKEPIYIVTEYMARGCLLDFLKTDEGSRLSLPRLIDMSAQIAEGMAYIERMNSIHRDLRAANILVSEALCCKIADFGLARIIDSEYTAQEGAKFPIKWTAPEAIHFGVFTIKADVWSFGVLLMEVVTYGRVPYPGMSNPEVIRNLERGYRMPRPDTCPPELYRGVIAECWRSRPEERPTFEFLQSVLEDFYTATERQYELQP
Assay [4] concerns the target CAMK1D (Homo sapiens, UniProt Q8IU85). An outline of the steps: as §1
Assay [5] has as its target T2, DCAMKL3 (Homo sapiens, UniProt Q9C098).
T2 construct: gene DCLK3
Summed up:
as §1

Assay [6] has as its target EPHA7 (Homo sapiens, UniProt Q15375). Summed up: as §1
Assay [7] addresses FLT4 (Homo sapiens, UniProt P35916). An outline of the steps: as §1
Assay [8] addresses T3, JAK2(JH1domain-catalytic) (Homo sapiens, UniProt O60674).
T3 construct: JH1domain-catalytic
Summed up:
as §1

For assay [9], the target named is LIMK1 (Homo sapiens, UniProt P53667). An outline of the steps:
as §1

In assay [10] the target is T4, MEK2 (Homo sapiens, UniProt P36507).
T4 construct: gene MAP2K2
Summed up: as §1

In assay [11] the target is T5, MLK2 (Homo sapiens, UniProt Q02779).
T5 construct: gene MAP3K10
An outline of the steps: as §1

Assay [12] has as its target PAK6 (Homo sapiens, UniProt Q9NQU5). An outline of the steps:
as §1

The target in assay [13] is PIK3C2B (Homo sapiens, UniProt O00750). Summed up:
as §1

The target of assay [14] is PIK3CA(H1047L) (Homo sapiens, UniProt P42336, H1047L). Summed up: as §1
Assay [15] addresses T6, PIP5K2C (Homo sapiens, UniProt Q8TBX8).
T6 construct: gene PIP4K2C
An outline of the steps: as §1

In assay [16] the target is PKMYT1 (Homo sapiens, UniProt Q99640). Summed up:
as §1

The target of assay [17] is T7, QSK (Homo sapiens, UniProt Q9Y2K2).
T7 construct: gene SIK3
An outline of the steps:
as §1

For assay [18], the target named is RAF1 (Homo sapiens, UniProt P04049). Summed up: as §1
The target in assay [19] is T8, RSK4(Kin.Dom.2-C-terminal) (Homo sapiens, UniProt Q9UK32).
T8 construct: gene RPS6KA6; Kin.Dom.2-C-terminal
An outline of the steps:
as §1

Assay [20] deals with T9, YANK3 (Homo sapiens, UniProt Q86UX6).
T9 construct: gene STK32C
Summed up: as §1

Assay [21] has as its target T10, YES (Homo sapiens, UniProt P07947).
T10 construct: gene YES1
Summed up: as §1

T3 sequence (O60674 whole entry): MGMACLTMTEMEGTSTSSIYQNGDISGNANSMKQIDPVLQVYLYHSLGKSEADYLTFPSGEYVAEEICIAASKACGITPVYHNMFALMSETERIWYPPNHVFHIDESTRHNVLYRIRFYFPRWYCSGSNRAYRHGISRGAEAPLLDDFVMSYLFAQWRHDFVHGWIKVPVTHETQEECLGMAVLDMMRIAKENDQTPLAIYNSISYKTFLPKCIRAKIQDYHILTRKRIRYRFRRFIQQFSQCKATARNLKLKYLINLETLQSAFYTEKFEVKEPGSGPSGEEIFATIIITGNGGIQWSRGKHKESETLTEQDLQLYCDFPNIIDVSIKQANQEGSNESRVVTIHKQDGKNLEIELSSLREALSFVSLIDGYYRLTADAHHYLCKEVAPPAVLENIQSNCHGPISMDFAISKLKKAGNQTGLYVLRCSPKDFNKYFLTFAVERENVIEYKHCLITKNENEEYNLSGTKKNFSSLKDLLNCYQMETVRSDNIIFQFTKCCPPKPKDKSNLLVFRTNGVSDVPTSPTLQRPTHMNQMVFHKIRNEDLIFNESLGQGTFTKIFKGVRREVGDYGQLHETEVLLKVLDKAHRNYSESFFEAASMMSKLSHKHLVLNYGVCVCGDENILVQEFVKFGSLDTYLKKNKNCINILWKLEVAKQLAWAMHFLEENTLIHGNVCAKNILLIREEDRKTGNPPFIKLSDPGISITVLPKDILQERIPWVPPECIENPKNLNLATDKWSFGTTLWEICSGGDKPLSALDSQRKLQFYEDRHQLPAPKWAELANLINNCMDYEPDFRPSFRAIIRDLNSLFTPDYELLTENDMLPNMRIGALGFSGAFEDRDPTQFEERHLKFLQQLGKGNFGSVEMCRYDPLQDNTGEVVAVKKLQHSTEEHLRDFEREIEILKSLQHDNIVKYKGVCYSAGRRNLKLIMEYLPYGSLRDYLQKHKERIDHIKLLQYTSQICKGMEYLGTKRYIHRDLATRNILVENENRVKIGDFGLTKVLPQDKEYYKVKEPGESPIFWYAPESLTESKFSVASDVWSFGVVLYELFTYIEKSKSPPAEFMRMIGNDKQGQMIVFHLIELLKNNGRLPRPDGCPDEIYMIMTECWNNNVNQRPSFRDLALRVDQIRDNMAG
Sequence of AURKB (Q96GD4 whole entry): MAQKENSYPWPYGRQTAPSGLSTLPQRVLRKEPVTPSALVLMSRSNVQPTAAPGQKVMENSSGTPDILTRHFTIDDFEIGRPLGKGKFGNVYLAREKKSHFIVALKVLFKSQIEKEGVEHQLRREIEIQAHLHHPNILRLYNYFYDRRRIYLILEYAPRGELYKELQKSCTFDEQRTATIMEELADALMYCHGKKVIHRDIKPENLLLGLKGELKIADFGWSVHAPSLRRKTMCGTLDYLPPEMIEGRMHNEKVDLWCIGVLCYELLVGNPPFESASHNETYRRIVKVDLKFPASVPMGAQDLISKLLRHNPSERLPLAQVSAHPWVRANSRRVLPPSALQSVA
Sequence of EPHA7 (Q15375 whole entry): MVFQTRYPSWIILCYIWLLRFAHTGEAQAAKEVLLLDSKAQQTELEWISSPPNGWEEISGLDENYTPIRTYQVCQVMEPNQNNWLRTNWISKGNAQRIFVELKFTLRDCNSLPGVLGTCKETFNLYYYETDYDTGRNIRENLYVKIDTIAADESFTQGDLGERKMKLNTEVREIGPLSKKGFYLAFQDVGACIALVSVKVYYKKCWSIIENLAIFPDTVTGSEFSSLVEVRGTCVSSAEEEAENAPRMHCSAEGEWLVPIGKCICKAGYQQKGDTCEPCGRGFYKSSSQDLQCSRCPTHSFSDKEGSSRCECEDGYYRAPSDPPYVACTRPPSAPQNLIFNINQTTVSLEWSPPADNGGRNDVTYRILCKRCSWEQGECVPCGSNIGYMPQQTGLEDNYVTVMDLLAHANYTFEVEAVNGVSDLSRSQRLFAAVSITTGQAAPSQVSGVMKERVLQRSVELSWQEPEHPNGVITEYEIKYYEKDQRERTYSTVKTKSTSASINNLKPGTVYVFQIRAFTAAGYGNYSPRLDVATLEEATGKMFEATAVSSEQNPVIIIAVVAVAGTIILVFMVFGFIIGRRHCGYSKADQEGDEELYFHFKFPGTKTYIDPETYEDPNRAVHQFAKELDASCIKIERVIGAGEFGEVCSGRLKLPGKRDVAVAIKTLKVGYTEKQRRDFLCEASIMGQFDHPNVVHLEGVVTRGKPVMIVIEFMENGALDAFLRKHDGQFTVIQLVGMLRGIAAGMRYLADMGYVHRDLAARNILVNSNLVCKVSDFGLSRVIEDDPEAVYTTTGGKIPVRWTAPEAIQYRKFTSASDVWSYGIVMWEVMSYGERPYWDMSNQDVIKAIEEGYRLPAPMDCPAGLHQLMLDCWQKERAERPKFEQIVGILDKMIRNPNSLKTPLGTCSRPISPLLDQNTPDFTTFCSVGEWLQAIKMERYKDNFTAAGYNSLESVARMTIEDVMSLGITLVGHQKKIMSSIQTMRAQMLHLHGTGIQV
Sequence of PKMYT1 (Q99640 whole entry): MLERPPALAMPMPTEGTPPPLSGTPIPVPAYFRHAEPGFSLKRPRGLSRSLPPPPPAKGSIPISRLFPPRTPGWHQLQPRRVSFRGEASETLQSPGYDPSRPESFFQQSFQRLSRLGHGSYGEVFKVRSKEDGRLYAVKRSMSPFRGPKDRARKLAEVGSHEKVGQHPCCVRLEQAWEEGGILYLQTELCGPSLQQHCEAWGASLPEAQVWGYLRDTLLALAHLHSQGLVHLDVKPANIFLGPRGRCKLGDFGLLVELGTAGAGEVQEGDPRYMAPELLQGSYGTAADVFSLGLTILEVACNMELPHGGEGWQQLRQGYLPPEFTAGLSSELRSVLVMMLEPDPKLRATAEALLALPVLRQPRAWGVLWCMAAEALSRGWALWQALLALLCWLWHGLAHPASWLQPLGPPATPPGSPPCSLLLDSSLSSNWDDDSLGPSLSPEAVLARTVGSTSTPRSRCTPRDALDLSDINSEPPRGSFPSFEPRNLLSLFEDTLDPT
Sequence of PAK6 (Q9NQU5 whole entry): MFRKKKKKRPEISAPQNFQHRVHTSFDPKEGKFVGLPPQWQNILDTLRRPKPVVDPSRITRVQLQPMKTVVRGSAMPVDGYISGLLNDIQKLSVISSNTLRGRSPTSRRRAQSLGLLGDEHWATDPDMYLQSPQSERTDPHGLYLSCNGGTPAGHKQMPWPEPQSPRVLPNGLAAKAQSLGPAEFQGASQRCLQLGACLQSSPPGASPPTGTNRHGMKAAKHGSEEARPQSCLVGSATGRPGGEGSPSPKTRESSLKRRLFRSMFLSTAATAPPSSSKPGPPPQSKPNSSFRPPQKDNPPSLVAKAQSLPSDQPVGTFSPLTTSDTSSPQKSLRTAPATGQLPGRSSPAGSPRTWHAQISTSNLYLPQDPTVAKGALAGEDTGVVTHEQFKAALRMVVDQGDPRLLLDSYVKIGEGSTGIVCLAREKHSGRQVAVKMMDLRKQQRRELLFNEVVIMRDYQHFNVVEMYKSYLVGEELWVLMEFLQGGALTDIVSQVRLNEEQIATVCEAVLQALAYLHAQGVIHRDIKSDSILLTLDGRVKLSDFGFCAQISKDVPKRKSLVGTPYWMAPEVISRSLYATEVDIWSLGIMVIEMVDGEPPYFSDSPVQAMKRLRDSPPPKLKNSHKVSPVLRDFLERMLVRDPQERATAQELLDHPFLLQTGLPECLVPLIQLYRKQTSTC

Take `C=C(C)[C@H]1CC=C(C)C(=O)C1` [S-carvone]: the remaining binding at 100 µM turned out to be 66% in assay [1]; 68% in assay [2]; 80% in assay [3]; 83% in assay [4]; 75% in assay [5]; 91% in [6]. The remaining binding at 100 µM in assay [7] is 90%; in assay [8], 78%; in [9], 89%; in assay [10], 86%; in [11] it was 83%; in assay [12] it was 98%. In addition, the remaining binding at 100 µM in [13] is 72%; in [14] it was 74%; in assay [15] it was 88%; in assay [16] it was 86%; in [17], 89%; in [18] it was 99%. In addition, the remaining binding at 100 µM in assay [19] worked out at 57%; in assay [20] it was 91%; in [21], 84%.
